Reference: patent publication US12065436B2, “Cardiac sarcomere inhibitors” (Cytokinetics, Inc., priority 2018, dated 2024)

Target: bovine cardiac myofibrils (full-length cardiac myosin ATPase in the native sarcomere) (Bos taurus (Bovine), UniProt Q9BE39)
Test: Skinned bovine cardiac myofibril ATPase assay (PK/LDH-coupled)
Assay type: biochemical
Settings: Ca2+ activating to 75% of maximal rate; for CDMF75 IC15: concentration giving 15% inhibition; for IC50: read-out: CDMF75 IC50
Summary of the method: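 Triton-skinned bovine left-ventricle myofibrils (1 mg/mL) in PM 12 buffer (12 mM PIPES, 2 mM MgCl2, pH 6.8) with 50 μM ATP, 0.6 mM EGTA and CaCl2 set for 50% or 75% activation. Steady-state ATPase inhibition followed by PK/LDH-coupled NADH oxidation at 340 nm.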

Chain of bovine cardiac myofibrils (full-length cardiac myosin ATPase in the native sarcomere) (Q9BE39 whole entry): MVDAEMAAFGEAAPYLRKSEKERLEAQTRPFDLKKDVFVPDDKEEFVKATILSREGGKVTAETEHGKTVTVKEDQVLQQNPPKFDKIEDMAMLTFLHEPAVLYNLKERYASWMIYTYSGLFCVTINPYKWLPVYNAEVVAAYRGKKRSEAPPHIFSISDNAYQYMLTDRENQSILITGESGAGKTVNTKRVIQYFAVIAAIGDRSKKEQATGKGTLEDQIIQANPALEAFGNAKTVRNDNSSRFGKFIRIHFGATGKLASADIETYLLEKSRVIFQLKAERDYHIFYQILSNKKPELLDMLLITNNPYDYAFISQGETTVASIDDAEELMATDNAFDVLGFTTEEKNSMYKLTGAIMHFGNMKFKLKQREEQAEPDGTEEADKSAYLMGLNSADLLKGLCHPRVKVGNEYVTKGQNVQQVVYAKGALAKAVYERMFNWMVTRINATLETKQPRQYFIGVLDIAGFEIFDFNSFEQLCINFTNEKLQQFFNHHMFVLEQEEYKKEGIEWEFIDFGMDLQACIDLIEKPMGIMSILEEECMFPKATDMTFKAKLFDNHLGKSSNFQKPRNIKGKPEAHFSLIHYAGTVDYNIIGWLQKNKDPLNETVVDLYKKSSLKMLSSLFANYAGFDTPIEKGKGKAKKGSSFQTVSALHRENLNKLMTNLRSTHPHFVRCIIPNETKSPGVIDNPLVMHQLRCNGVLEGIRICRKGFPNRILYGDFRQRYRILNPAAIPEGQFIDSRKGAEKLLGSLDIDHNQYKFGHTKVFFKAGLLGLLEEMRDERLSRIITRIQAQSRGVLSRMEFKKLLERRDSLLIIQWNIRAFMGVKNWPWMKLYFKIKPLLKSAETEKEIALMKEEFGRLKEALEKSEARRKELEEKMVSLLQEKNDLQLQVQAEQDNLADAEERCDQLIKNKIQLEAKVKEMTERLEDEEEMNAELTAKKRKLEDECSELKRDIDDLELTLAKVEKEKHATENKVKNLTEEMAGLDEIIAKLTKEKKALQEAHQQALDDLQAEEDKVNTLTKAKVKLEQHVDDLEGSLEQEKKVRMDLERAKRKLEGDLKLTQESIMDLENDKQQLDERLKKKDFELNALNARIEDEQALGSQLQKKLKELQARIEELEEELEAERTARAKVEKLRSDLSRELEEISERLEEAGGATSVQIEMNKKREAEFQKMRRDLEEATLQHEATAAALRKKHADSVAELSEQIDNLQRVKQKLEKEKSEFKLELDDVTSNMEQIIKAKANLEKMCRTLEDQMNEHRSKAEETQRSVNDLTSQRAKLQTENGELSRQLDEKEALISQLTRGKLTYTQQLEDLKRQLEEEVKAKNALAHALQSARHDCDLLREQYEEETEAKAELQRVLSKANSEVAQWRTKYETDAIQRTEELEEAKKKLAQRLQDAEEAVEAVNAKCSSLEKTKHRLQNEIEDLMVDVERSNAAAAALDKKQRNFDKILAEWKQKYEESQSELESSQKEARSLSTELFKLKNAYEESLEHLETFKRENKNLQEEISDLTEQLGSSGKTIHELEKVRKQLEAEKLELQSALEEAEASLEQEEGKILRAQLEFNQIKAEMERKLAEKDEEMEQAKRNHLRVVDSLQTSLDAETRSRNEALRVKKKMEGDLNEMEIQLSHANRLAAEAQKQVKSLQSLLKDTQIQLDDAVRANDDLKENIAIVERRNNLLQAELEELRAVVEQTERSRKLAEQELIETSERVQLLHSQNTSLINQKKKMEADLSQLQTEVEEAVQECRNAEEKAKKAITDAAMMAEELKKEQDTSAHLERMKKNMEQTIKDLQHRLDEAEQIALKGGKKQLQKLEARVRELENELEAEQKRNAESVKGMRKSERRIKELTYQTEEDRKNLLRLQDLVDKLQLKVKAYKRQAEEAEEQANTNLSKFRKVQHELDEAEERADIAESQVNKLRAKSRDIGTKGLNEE
Chain of bovine cardiac myofibrils (full-length cardiac myosin ATPase in the native sarcomere) (P85100 whole entry partner): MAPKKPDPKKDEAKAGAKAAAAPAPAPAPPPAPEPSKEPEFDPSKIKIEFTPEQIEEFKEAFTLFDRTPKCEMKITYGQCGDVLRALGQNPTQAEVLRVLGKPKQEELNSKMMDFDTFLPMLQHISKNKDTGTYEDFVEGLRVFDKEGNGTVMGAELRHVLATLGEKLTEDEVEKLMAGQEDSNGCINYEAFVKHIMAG
Chain of bovine cardiac myofibrils (full-length cardiac myosin ATPase in the native sarcomere) (Q3SZE5 whole entry partner): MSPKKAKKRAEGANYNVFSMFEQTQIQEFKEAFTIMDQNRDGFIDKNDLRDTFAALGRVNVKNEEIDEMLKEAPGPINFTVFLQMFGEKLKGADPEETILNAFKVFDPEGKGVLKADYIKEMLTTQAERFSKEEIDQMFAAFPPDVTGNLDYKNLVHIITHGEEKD

| SMILES | CDMF75 IC15 [µM] | IC50 [µM] |
| --- | --- | --- |
| CCc1nc(-c2ccc3c(c2)CC[C@H]3NC(=O)c2cnn(C3COC3)c2)no1 [Compound 470, (R)-N-(5-(5-ethyl-1,2,4-oxadiazol-3-yl)-2,3-dihydro-1H-inden-1-yl)-1-(oxetan-3-yl)-1H-pyrazole-4-carboxamide] | 4.4 | 16.8 |
| CCc1nc(-c2ccc3c(c2)CC[C@H]3NC(=O)c2cnn(CCOC)c2)no1 [Compound 472, (R)-N-(5-(5-ethyl-1,2,4-oxadiazol-3-yl)-2,3-dihydro-1H-inden-1-yl)-1-(2-methoxyethyl)-1H-pyrazole-4-carboxamide] | 0.8 | 3.1 |
| CCc1nc(-c2ccc3c(c2)CC[C@H]3NC(=O)c2cnn(CC(=O)OC)c2)no1 [Compound 473, methyl (R)-2-(4-((5-(5-ethyl-1,2,4-oxadiazol-3-yl)-2,3-dihydro-1H-inden-1-yl)carbamoyl)-1H-pyrazol-1-yl)acetate] | 1.1 | 3.8 |
| CCc1nc(-c2ccc3c(c2)CC[C@H]3NC(=O)c2cnn(CC(N)=O)c2)no1 [Compound 475, (R)-1-(2-amino-2-oxoethyl)-N-(5-(5-ethyl-1,2,4-oxadiazol-3-yl)-2,3-dihydro-1H-inden-1-yl)-1H-pyrazole-4-carboxamide] | 0.9 | 3.8 |
| CCc1nc(-c2ccc3c(c2)CC[C@H]3NC(=O)c2cnn(CC(C)(C)O)c2)no1 [Compound 476, (R)-N-(5-(5-ethyl-1,2,4-oxadiazol-3-yl)-2,3-dihydro-1H-inden-1-yl)-1-(2-hydroxy-2-methylpropyl)-1H-pyrazole-4-carboxamide] | 4.2 | 19.5 |
| CCc1nc(-c2ccc3c(c2)CC[C@H]3NC(=O)c2cnn(C3CN(C(C)=O)C3)c2)no1 [Compound 477, (R)-1-(1-acetylazetidin-3-yl)-N-(5-(5-ethyl-1,2,4-oxadiazol-3-yl)-2,3-dihydro-1H-inden-1-yl)-1H-pyrazole-4-carboxamide] | 8.5 | 39.2 |
| CCc1nc(-c2ccc3c(c2)CC[C@H]3NC(=O)c2cnn(C3CN(S(C)(=O)=O)C3)c2)no1 [Compound 478, (R)-N-(5-(5-ethyl-1,2,4-oxadiazol-3-yl)-2,3-dihydro-1H-inden-1-yl)-1-(1-(methylsulfonyl)azetidin-3-yl)-1H-pyrazole-4-carboxamide] | 2.9 | 11.9 |
| CCc1nc(-c2ccc3c(c2)CC[C@H]3NC(=O)c2cnn(C3CN(C(=O)NC)C3)c2)no1 [Compound 479, (R)-N-(5-(5-ethyl-1,2,4-oxadiazol-3-yl)-2,3-dihydro-1H-inden-1-yl)-1-(1-(methylcarbamoyl)azetidin-3-yl)-1H-pyrazole-4-carboxamide] | 4.5 | 23.1 |
| CCc1nc(-c2ccc3c(c2)CC[C@H]3NC(=O)c2cnn(C3CN(C(N)=O)C3)c2)no1 [Compound 481, (R)-1-(1-carbamoylazetidin-3-yl)-N-(5-(5-ethyl-1,2,4-oxadiazol-3-yl)-2,3-dihydro-1H-inden-1-yl)-1H-pyrazole-4-carboxamide] | 1.9 | 7.8 |
| CCc1nc(-c2ccc3c(c2)CCC3C(=O)Nc2cnn(C)c2)no1 (centres unmarked) [Compound 482, 5-(5-ethyl-1,2,4-oxadiazol-3-yl)-N-(1-methyl-1H-pyrazol-4-yl)-2,3-dihydro-1H-indene-1-carboxamide] | 3.9 |  |
| CCc1nc(-c2ccc3c(c2)CCC3C(=O)Nc2ccnc(C)c2)no1 (centres unmarked) [Compound 483, 5-(5-ethyl-1,2,4-oxadiazol-3-yl)-N-(2-methylpyridin-4-yl)-2,3-dihydro-1H-indene-1-carboxamide] | 2.0 | 6.8 |
| CCc1nc(-c2ccc3c(c2)CC[C@H]3NC(=O)c2cnn(C3CNC3)c2)no1 [Compound 484, (R)-1-(azetidin-3-yl)-N-(5-(5-ethyl-1,2,4-oxadiazol-3-yl)-2,3-dihydro-1H-inden-1-yl)-1H-pyrazole-4-carboxamide] | 39.2 | 39.2 |
| CCc1nc(-c2ccc3c(c2)CC[C@H]3NC(=O)c2cnn(CC(O)CO)c2)no1 (stereo partly drawn) [Compound 485, 1-(2,3-dihydroxypropyl)-N-((R)-5-(5-ethyl-1,2,4-oxadiazol-3-yl)-2,3-dihydro-1H-inden-1-yl)-1H-pyrazole-4-carboxamide] | 1.2 | 4.1 |
| CCc1nc(-c2ccc3c(c2)CC[C@H]3NC(=O)c2cn[nH]c2OC)no1 [Compound 486, (R)-N-(5-(5-ethyl-1,2,4-oxadiazol-3-yl)-2,3-dihydro-1H-inden-1-yl)-5-methoxy-1H-pyrazole-4-carboxamide] | 4.1 | 24.3 |
| Cc1nc(-c2ccc3c(c2)CC[C@H]3NC(=O)c2cn[nH]c2)no1 [Compound 487, (R)-N-(5-(5-methyl-1,2,4-oxadiazol-3-yl)-2,3-dihydro-1H-inden-1-yl)-1H-pyrazole-4-carboxamide] | 0.9 | 3.4 |
| CC(C)c1nc(-c2ccc3c(c2)CC[C@H]3NC(=O)c2cn[nH]c2)no1 [Compound 488, (R)-N-(5-(5-isopropyl-1,2,4-oxadiazol-3-yl)-2,3-dihydro-1H-inden-1-yl)-1H-pyrazole-4-carboxamide] | 1.1 | 4.3 |
| COCc1nc(-c2ccc3c(c2)CC[C@H]3NC(=O)c2cn[nH]c2)no1 [Compound 490, (R)-N-(5-(5-(methoxymethyl)-1,2,4-oxadiazol-3-yl)-2,3-dihydro-1H-inden-1-yl)-1H-pyrazole-4-carboxamide] | 1.6 | 6.9 |
| [2H]C([2H])([2H])c1nc(-c2ccc3c(c2)CC[C@H]3NC(=O)c2cn[nH]c2)no1 [Compound 491, (R)-N-(5-(5-(methyl-d3)-1,2,4-oxadiazol-3-yl)-2,3-dihydro-1H-inden-1-yl)-1H-pyrazole-4-carboxamide] | 1.0 | 3.7 |
| CCOC(=O)C(C)c1nc(-c2ccc3c(c2)CC[C@H]3NC(=O)c2ccnn2C)no1 (stereo partly drawn) [Compound 492, ethyl 2-(3-((R)-1-(1-methyl-1H-pyrazole-5-carboxamido)-2,3-dihydro-1H-inden-5-yl)-1,2,4-oxadiazol-5-yl)propanoate] | 1.1 | 4 |
| CCOC(=O)C(C)c1nc(-c2ccc3c(c2)CCC3NC(=O)c2cnc(C)o2)no1 (centres unmarked) [Compound 493, ethyl 2-(3-(1-(2-methyloxazole-5-carboxamido)-2,3-dihydro-1H-inden-5-yl)-1,2,4-oxadiazol-5-yl)propanoate] | 5.6 | 21.4 |
| CCc1nc(-c2ccc3c(c2)CC[C@H]3NC(=O)c2cnn(CCOC(C)=O)c2)no1 [Compound 494, (R)-2-(4-((5-(5-ethyl-1,2,4-oxadiazol-3-yl)-2,3-dihydro-1H-inden-1-yl)carbamoyl)-1H-pyrazol-1-yl)ethyl acetate] | 2.4 | 10 |
| CCc1nc(-c2ccc3c(c2)C[C@H](O)[C@H]3NC(=O)c2cnn(C)c2)no1 [Compound 495, N-((1S,2S)-5-(5-ethyl-1,2,4-oxadiazol-3-yl)-2-hydroxy-2,3-dihydro-1H-inden-1-yl)-1-methyl-1H-pyrazole-4-carboxamide] | 10.0 | 39.2 |
| CC(CO)c1nc(-c2ccc3c(c2)CC[C@H]3NC(=O)c2ccnn2C)no1 (stereo partly drawn) [Compound 496, N-((1R)-5-(5-(1-hydroxypropan-2-yl)-1,2,4-oxadiazol-3-yl)-2,3-dihydro-1H-inden-1-yl)-1-methyl-1H-pyrazole-5-carboxamide] | 7.1 | 34.3 |
| C[C@H](CO)c1nc(-c2ccc3c(c2)CC[C@H]3NC(=O)c2ccnn2C)no1 [Compound 497, N-((R)-5-(5-((R)-1-hydroxypropan-2-yl)-1,2,4-oxadiazol-3-yl)-2,3-dihydro-1H-inden-1-yl)-1-methyl-1H-pyrazole-5-carboxamide] | 7.4 | 39.2 |
| C[C@@H](CO)c1nc(-c2ccc3c(c2)CC[C@H]3NC(=O)c2ccnn2C)no1 [Compound 498, N-((R)-5-(5-((S)-1-hydroxypropan-2-yl)-1,2,4-oxadiazol-3-yl)-2,3-dihydro-1H-inden-1-yl)-1-methyl-1H-pyrazole-5-carboxamide] | 7.9 | 34.7 |
| CC(C)c1nc(-c2ccc3c(c2)CC[C@H]3NC(=O)c2nn[nH]n2)no1 [Compound 499, (R)-N-(5-(5-isopropyl-1,2,4-oxadiazol-3-yl)-2,3-dihydro-1H-inden-1-yl)-2H-tetrazole-5-carboxamide] | 2.4 | 39.2 |
| CC(C)c1nc(-c2ccc3c(c2)CC[C@H]3NC(=O)c2nnn(Cc3ccccc3)n2)no1 [Compound 500, (R)-2-benzyl-N-(5-(5-isopropyl-1,2,4-oxadiazol-3-yl)-2,3-dihydro-1H-inden-1-yl)-2H-tetrazole-5-carboxamide] | 1.0 | 6.5 |
| CCc1nc(-c2ccc3c(c2)CC[C@H]3NC(=O)c2nnn(Cc3ccccc3)n2)no1 [Compound 501, (R)-2-benzyl-N-(5-(5-ethyl-1,2,4-oxadiazol-3-yl)-2,3-dihydro-1H-inden-1-yl)-2H-tetrazole-5-carboxamide] | 0.3 | 1.1 |
| CCc1nc(-c2ccc3c(c2)CC[C@H]3NC(=O)c2nn[nH]n2)no1 [Compound 502, (R)-N-(5-(5-ethyl-1,2,4-oxadiazol-3-yl)-2,3-dihydro-1H-inden-1-yl)-2H-tetrazole-5-carboxamide] | 2.0 | 8 |
| O=C(N[C@@H]1CCc2cc(-c3noc(C4CCC4)n3)ccc21)c1nnn(Cc2ccccc2)n1 [Compound 503, (R)-2-benzyl-N-(5-(5-cyclobutyl-1,2,4-oxadiazol-3-yl)-2,3-dihydro-1H-inden-1-yl)-2H-tetrazole-5-carboxamide] | 0.8 | 3.4 |
